US5502066A, “1,2,4-dithiazolium salts as chemotherapeutics” (Bayer Aktiengesellschaft, priority 1993, dated 1996)

Legend:
[1] = test system: endotoxemic shock in D-GalN-sensitized mice; assay: in vivo; set-up: lethality, Dose 10 mg/kg / lethality, Dose 30 mg/kg / lethality, Dose 60 mg/kg: unit not given here; conditions: LPS + D-GalN control 100, 48 hours; for lethality, Dose 10 mg/kg: 10 mg/kg i.p. one hour before LPS (0.1 μg/mouse) + D-GalN (60 mg/kg); for lethality, Dose 30 mg/kg: 30 mg/kg i.p. one hour before LPS (0.1 μg/mouse) + D-GalN (60 mg/kg); for lethality, Dose 60 mg/kg: 60 mg/kg i.p. one hour before LPS (0.1 μg/mouse) + D-GalN (60 mg/kg)
Description: (§1) Substances from the class of dithiazolium salts are described in their protective action by way of example in the following: in vitro in the TNF-α-mediated cytotoxicity test, and in vivo on mice which have been exposed to an endotoxin shock.
(§2) In vivo experiments on inhibition of provoked endotoxin shock were carried out on female inbred mice (F1 B6D2!). Endotoxin/lipopolysaccharide (LPS) from Salmonella abortus equi (0.1 μg/mouse) was administered intraperitoneally or intravenously in association with D-galactosamine hydrochloride (D-GalN; 60 mg/kg of bodyweight) in accordance with reports by Galanos et al. (1979, Proc. Natl. Acad. Sci. USA 76: 5939; V. Lehmann et al. 1987, J. Exp. Med. 165: 657). The substances were administered intraperitoneally one hour before inducement of the endotoxemic shock. The observation period was 48 hours.

in vivo = assay: in vivo; set-up: lethality, Dose 10 mg/kg / lethality, Dose 30 mg/kg / lethality, Dose 60 mg/kg: unit not given here; conditions: mouse, in vivo, ip; substance 60 mg/kg + D-GalN 60 mg/kg, without LPS; mice; observation 48 hours; read-out: lethality, Substance + D-GalN control
Description: as §1, §2

SMILES: CC1C[N+](=c2nc(N(C)C)ss2)CC(C)O1.[I-] (centres unmarked) [Example 2, 4-(5-dimethylamino-3H-1,2,4-dithiazole-3-ylidene)-2,6-dimethyl-morpholinium iodide]
- lethality, Dose 10 mg/kg [1]: 100
- lethality, Dose 30 mg/kg [1]: 20
- lethality, Dose 60 mg/kg [1]: 0
- mortality at 48 h (in vivo): 0%

SMILES: CN(C)c1nc(=[N+](C)c2ccccc2)ss1.F[B-](F)(F)F [Example 3, N-(5-dimethylamino-3H-1,2,4-dithiazole-3-ylidene)-N-methylanilinium tetrafluoroborate]
- lethality, Dose 10 mg/kg [1]: 80
- lethality, Dose 30 mg/kg [1]: 40
- lethality, Dose 60 mg/kg [1]: 0
- mortality at 48 h (in vivo): 0%

SMILES: CN(C)c1nc(=[N+]2CCOCC2)ss1 [Example 5]
- lethality, Dose 10 mg/kg [1]: 40
- lethality, Dose 30 mg/kg [1]: 0
- lethality, Dose 60 mg/kg [1]: 0
- mortality at 48 h (in vivo): 0%

SMILES: CN1CC[N+](=c2nc(N(C)C)ss2)CC1 [Example 8]
- lethality, Dose 10 mg/kg [1]: 40
- lethality, Dose 30 mg/kg [1]: 0
- lethality, Dose 60 mg/kg [1]: 0
- mortality at 48 h (in vivo): 0%

SMILES: CC(C)[N+](=c1nc(N(C)C)ss1)C(C)C [Example 10]
- lethality, Dose 10 mg/kg [1]: 20
- lethality, Dose 30 mg/kg [1]: 0
- lethality, Dose 60 mg/kg [1]: 0
- mortality at 48 h (in vivo): 0%

SMILES: CN(C)c1nc(=[N+](C)Cc2ccc(Cl)c(Cl)c2)ss1 [Example 43]
- lethality, Dose 10 mg/kg [1]: 20
- lethality, Dose 30 mg/kg [1]: 20
- lethality, Dose 60 mg/kg [1]: 0
- mortality at 48 h (in vivo): 0%

SMILES: CN(C)c1nc(=[N+](C)Cc2ccc(Cl)cc2)ss1 [Example 46]
- lethality, Dose 10 mg/kg [1]: 0
- lethality, Dose 30 mg/kg [1]: 0
- lethality, Dose 60 mg/kg [1]: 0
- mortality at 48 h (in vivo): 0%

SMILES: CN(C)c1nc(=[N+](C)Cc2ccc(Cl)cc2Cl)ss1 [Example 48]
- lethality, Dose 10 mg/kg [1]: 0
- lethality, Dose 30 mg/kg [1]: 0
- lethality, Dose 60 mg/kg [1]: 0
- mortality at 48 h (in vivo): 0%
